Laboratory results taken from PMC9649909, “Wnt-pathway inhibitors with selective activity against triple-negative breast cancer: From thienopyrimidine to quinazoline inhibitors” (Frontiers in Pharmacology, 2022).
Where two headings read alike, the source gives them in different places.

Key:
[1] = tested on: β-catenin-dependent Wnt-pathway; experiment: TopFlash luciferase reporter assay, CHIR99021-stimulated, HCC1395; assay type: cell-based; details: for TopFlash activity in words: HCC1395, CHIR99021; for IC50 / Emax: Homo sapiens; for GSK HCC1395 Comments: Table S2; for Emax: read-out: HCC1395 TopFlash Efficacy
Source text: Both stimulations abolish formation of the destruction complex, a multiprotein complex consisting of Axin, adenomatous polyposis coli (APC), glycogen synthase kinase three beta (GSK3β), and casein kinase one alpha (CK1α). Upon inactivation of the complex, β-catenin accumulates in the cytoplasm and translocates into the nucleus where it interacts with transcription factors. These downstream events are quantified by a Luciferase transcription-based readout assay (TopFlash assay).

[2] = in vitro; details: human
Protocol: (§1) The simplicity of the scaffold combined with synthetic accessibility allows building a library of compounds and performing structure activity relationship (SAR) studies of the three main parts of the molecule: the top part, the linker and the core (Figure 2).
(§2) The synthesized compounds were used to explore SAR of three defined areas of investigation (Figure 2). All compounds were tested in the HCC1395 TNBC cell line using the GSK3β inhibitor to induce β-catenin signaling since 4a acted downstream of GSK3β (Figure 2). Both inhibition of β-catenin signaling measured by the TopFlash reporter and cytotoxicity measured by the Renilla reporter were assessed.
(§3) The Wnt3a or CHIR99021-stimulated luciferase activity in HCC1395 TNBC cell line stably transfected with the TopFlash reporter was analyzed essentially as described for the BT-20 TNBC cell line ([Shaw et al., 2019b]; [Koval et al., 2021]). Reporter cells were seeded at 10,000 cells/well in a white opaque 384-well plate in the final volume of 20 μl of DMEM medium supplemented with 10% FCS. The cells were maintained incubated at 37°C, 5% CO2 overnight for attachment. Subsequently, they were transfected by a plasmid encoding constitutively expressed Renilla luciferase under the CMV promoter overall as described in the manufacturer’s protocol using 12 μg/ml of DNA and 40 μl/ml XtremeGENE nine reagent. The next day, the medium in each well was replaced with a 10 μl of fresh medium containing compound of interest, and, after 1 h of preincubation with the compounds, additional 10 μl of medium supplemented with Wnt3a [purified as described ([Willert et al., 2003]; [Koval and Katanaev, 2011])] or CHIR99021 were added creating respective final concentrations of 2.5 μg/ml or 5 μM of each. In case of other signal transduction reporters, no additional stimulation was performed. Compound dilutions were prepared by serial dilution in DMSO and diluted with the amount of medium necessary to obtain their final concentrations indicated on the figures and tables and maintain concentration of DMSO of 0.5% in all assay points. After overnight incubation, the supernatant in each well was removed, and the luciferase activity was measured as described ([Dyer et al., 2000]; [Huber et al., 2021]; [Pellissier et al., 2021]). The culture medium was completely removed from all wells of the plate. Finally, the luciferase activity of the firefly and Renilla luciferases was detected sequentially in individual wells of a 384-well plate through injection of corresponding measurement solutions and immediate reading (400 ms integration time) in Infinite M Plex multifunctional plate reader with injection module.

[3] = tested on: HCC1395 cells; experiment: in vitro; details: for HCC1395 Cytotoxicity Efficacy: human
Protocol: as §1, §2, §3

[4] = HCC1395, HCC1395, stimulation with CHIR99021 (GSK3β inhibitor), read-out: HCC1395 TopFlash IC50
[5] = HCC1395, HCC1395, stimulation with CHIR99021 (GSK3β inhibitor)
[6] = HCC1395, Table S2, TopFlash, GSK3β inhibitor stimulation, read-out: GSK HCC1395 IC50

Compound | TopFlash activity in words [1] | IC50 [1, 4] [µM] | GSK HCC1395 Comments [1] | IC50 ([2]; HCC1395 Cytotoxicity IC50) [µM] | HCC1395 Cytotoxicity Efficacy [3] [%] | IC50 [2] [µM] | Emax [1, 5] [%] | IC50 [1, 6] [µM] | GSK HCC1395 Renilla Comments [3]
c1ccc(Nc2ncnc3sccc23)cc1 [Compound 5f, N-phenylthieno[2,3-d]pyrimidin-4-amine] | inactive | > 50 | – | – | – | – | – | – | –
CCN(Cc1cccc(OC)c1)c1ncnc2sccc12 [Compound 5i, N-ethyl-N-(3-methoxybenzyl)thieno[2,3-d]pyrimidin-4-amine] | – | – | Toxic | 8.3 ± 3.79 | 64.1 ± 9.3 | – | – | – | –
COc1cccc(CCNc2ncnc3sccc23)c1 [Compound 5n, N-(3-methoxyphenethyl)thieno[2,3-d]pyrimidin-4-amine] | not tolerated | > 50 | Inactive | – | – | – | – | – | –
COc1cccc(C(=O)Nc2ncnc3sccc23)c1 [Compound 7, 3-methoxy-N-(thieno[2,3-d]pyrimidin-4-yl)benzamide] | – | > 50 | Inactive | – | – | – | – | – | –
COc1ccccc1CNc1ncnc2ccccc12 [Compound 9a, N-(2-methoxybenzyl)quinazolin-4-amine] | – | – | Toxic | 29 ± 14.5 | 100 ± 0 | – | – | – | –
Clc1ccc(CCNc2ncnc3ccccc23)cc1 [Compound 9g, N-(4-chlorophenethyl)quinazolin-4-amine] | – | – | Toxic | – | 100 ± 0 | 13 ± 1.45 | – | – | –
CC(Nc1ncnc2ccccc12)c1ccc(F)cc1 (centres unmarked) [Compound 9h, N-(1-(4-fluorophenyl)ethyl)quinazolin-4-amine] | – | 10.7 ± 2.33 | – | 16.6 ± 6.59 | 51.1 ± 21.3 | – | 66.4 ± 6.9 | – | –
COc1cccc(CNc2ncnc3c(C)csc23)c1 [Compound 10, N-(3-methoxybenzyl)-7-methylthieno[3,2-d]pyrimidin-4-amine] | no longer active | > 100 | Inactive | > 100 | – | – | – | > 50 | Non-toxic
COc1cccc(CNc2cc(Cl)ncn2)c1 [Compound 11, 6-chloro-N-(3-methoxybenzyl)pyrimidin-4-amine] | no longer active | 58.2 ± 1.48 | – | – | – | – | 100 | > 50 | –
COc1cccc(CNc2ccncn2)c1 [Compound 12, N-(3-methoxybenzyl)pyrimidin-4-amine] | no longer active | > 100 | Inactive | – | – | – | – | > 50 | –
COc1cccc(CNc2nccc3ccccc23)c1 [Compound 13, N-(3-methoxybenzyl)isoquinolin-1-amine] | – | > 100 | – | > 100 | – | – | – | > 50 | Non-toxic
COc1cccc(CNc2ccnc3ccccc23)c1 [Compound 16, N-(3-methoxybenzyl)quinolin-4-amine] | – | – | Toxic | 18.7 | 39.4 ± 13.0 | – | – | – | –
